{"source": "patent US20130028937A1", "about": "(LABORATORIOS DEL DR. ESTEVE, S.A., priority 2009, published 2013)", "key": {"[1]": {"tested_on": "locomotor activity in mice", "assay": "Locomotor activity in actimeter cages", "details": "CD-1 mice, 30 min after administration", "procedure": "Male, CD-1 mice (14-18 g, Charles River) were housed in a climate-controlled room for at least 5 days prior to testing. Food and water were available ad libitum up to test time.\nThe dosing volume was 10 ml/kg.\nEight standard actimeter cages (Linton Instrumentation, Inc.) equipped with infrared beams for the detection of movement were used. After administering the compounds, the animals were returned to their homecages and then placed in the locomotor activity cages 30 min later. Moving time was measured during 30 min, with readings performed every 5 min."}, "[2]": {"tested_on": "incision-induced mechanical allodynia in the rat hind paw", "assay": "Mechanical allodynia (von Frey filaments) in postoperative pain model after paw incision", "format": "in vivo", "details": "for efficacy on mechanical allodynia (in words): dose-response curve", "procedure": "Following plantar incision, rats show decreases in response thresholds graded von Frey filaments (mechanical hypersensitivity) (Brennan et al., Pain 1996, 64, 493).\nMale, Wistar rats (120-160 g, Harlan, Italy) were housed in a climate-controlled room for at least 5 days prior to testing. Food and water were available ad libitum up to test time.\nThe dosing volume was 10 ml/kg. The antiallodynic response of the animal was subsequently evaluated 60 min after drug administration.\nRats were anaesthetized with 3% isofluorane for veterinary use, employing an Ohmeda vaporizer and an anaesthesia chamber. Anaesthesia was kept during the surgical operation by a tube which directs the isoflurane vapours to the animal's snout. Once the rats were anaesthetised, they were laid down in a prone position and their right hindpaws were cleaned out with alcohol. Then, a 1 cm longitudinal incision was made with a number 23 scalpel, through skin and fascia of the plantar aspect of the paw, starting 0.5 cm from the proximal edge of the heel and extending toward the toes. Therefore, both superficial (skin) and deep (muscle) tissues and nerves were injured. Finally, the skin of the paw was stitched with a suturing stitch with breaded silk (3.0) and the wound was cleaned out with povidone.\nThe drugs were tested 4 hours after the surgery (plantar incision); 60 minutes after the administration of the product, one behavioural endpoint was evaluated: mechanical hypersensitivity or allodynia.\nMechanical allodynia was tested using von Frey filaments. Animals were placed in methacrylate cylinders on an elevated surface, with metallic mesh floor perforated in order to apply the filaments. After an acclimation period of about 30 minutes within the cylinders, both hindpaws were stimulated (the injured and the non-injured paw, serving the latter as control), starting with the lowest force filament (0.4 g) and reaching up to a 15 g filament. The animal's response to pain was manifested by the withdrawal of the paw as a consequence of the painful stimulus caused by a filament. The pressure (force in grams) threshold eliciting the withdrawal of the paw was recorded.\nThe method is based on the comparison of the effect of several doses of the combination at a determined ratio with respect to the effects achieved using different doses of each of the two agents. […] Where it is established that Zt<Zadd for a specific fixed-ratio, then that composition has a synergistic effect. The theoretical additive dose (Zadd) for the co-crystal was then calculated and compared with the experimental ED50 of the combination (Zt) as described in Tallarida, Drug synergism 2001, 298, 865-872 [10]."}, "[3]": {"details": "Wistar rats, intraperitoneal, 4 hours after plantar incision, 60 min after administration"}}, "data": [{"smiles": "COc1ccc(C(CN(C)C)C2(O)CCCCC2)cc1.Cc1ccc(-c2cc(C(F)(F)F)nn2-c2ccc(S(N)(=O)=O)cc2)cc1", "note": "(racemic) [Celecoxib—(rac)-venlafaxine co-crystal (1:1)]", "values": [{"measurement": "effect on locomotor activity (moving time)", "setting": "[1]; intraperitoneal, 20, 40, 80 and 160 mg/kg, p>0.05", "value": "did not show any significant side-effect"}, {"measurement": "inhibition of mechanical allodynia compared with each single drug at equivalent doses", "setting": "[2]; Wistar rats, intraperitoneal, 60 min after administration", "value": "superior benefit"}, {"measurement": "efficacy on mechanical allodynia (in words)", "setting": "[2]; [3]", "value": "full efficacy"}, {"measurement": "isobolographic analysis of interaction (Zt vs Zadd)", "setting": "[2]; molar ratio 1:1, experimental ED50 (Zt) vs theoretical Zadd, p>0.05 Student's t-test", "value": "additive interaction"}]}, {"smiles": "COc1ccc(C(CN(C)C)C2(O)CCCCC2)cc1", "note": "(racemic) [Venlafaxine, (rac)-1-[2-dimethylamino-1-(4-methoxyphenyl)-ethyl]cyclohexanol]", "values": [{"measurement": "effect on locomotor activity (moving time)", "setting": "[1]; intraperitoneal, 80 mg/kg, p<0.001", "value": "significant side-effects increasing"}, {"measurement": "effect on locomotor activity (moving time)", "setting": "[1]; intraperitoneal, doses lower than 80 mg/kg", "value": "no statistically significant effects"}, {"measurement": "maximum efficacy on mechanical allodynia", "setting": "[2]; Wistar rats, intraperitoneal, 4 hours after plantar incision, 60 min after administration, ceiling effect", "value": 58.40, "unit": "%"}]}, {"smiles": "Cc1ccc(-c2cc(C(F)(F)F)nn2-c2ccc(S(N)(=O)=O)cc2)cc1", "note": "[Celecoxib, 4-[5-(4-methylphenyl)-3-(trifluoromethyl)pyrazol-1-yl]benzenesulfonamide]", "values": [{"measurement": "effect on locomotor activity (moving time)", "setting": "[1]; intraperitoneal, 160 mg/kg, p<0.05 compared with vehicle", "value": "significant side-effects decreasing"}, {"measurement": "effect on locomotor activity (moving time)", "setting": "[1]; intraperitoneal, doses lower than 160 mg/kg", "value": "No effects"}, {"measurement": "efficacy on mechanical allodynia (in words)", "setting": "[2]; [3]", "value": "full efficacy"}]}]}
